Results on 45 compounds are retold here after patent US11440907B1 (Merck Patent GmbH, priority 2018, dated 2022).

pIC50: −log10 of the molar value.

One assay deals with β-catenin-TCF-mediated reporter transcription activity in Colo 205 cells. The assay is described as follows: Colo 205 reporter assay (TCF/LEF promoter-driven firefly luciferase). The format is cell-based. The following applies: Colo 205 TCF/LEF luciferase reporter, 5 hours after compound addition, 384 well; read-out: Colo205 IC50. An excerpt:
The compounds of the invention described herein were screened using the assay procedure for β-catenin-TCF-mediated reporter transcription activity described below.
Reporter cell lines were generated by stably transfecting cells of cancer cell lines (e.g., colon cancer) with a plasmid reporter construct (From SABiosciences, a QIAGEN company) that includes TCF/LEF promoter driving expression of the firefly luciferase gene. TCF/LEF reporter constructs were made in which TCF/LEF promoter, a promoter with optimal number of TCF/LEF binding sites designed by SABiosciences, was linked upstream of the firefly luciferase gene. This construct could also include a puromycin resistance gene as a selectable marker. This construct could also be used to stably transfect Colo 205 cells, a colon cancer cell line having a mutated APC gene that causes a constitutively active β-catenin. A control cell line was generated using another plasmid construct containing the luciferase gene under the control of a CMV basal promoter which is not activated by β-catenin.
Colo 205 Cultured cells with a stably transfected reporter construct were plated at approximately 10,000 cells per well into 384 well multi-well plates for twenty four hours. The testing compounds were then added to the wells in 2-fold serial dilutions using a twenty micromolar top concentration. A series of control wells for each cell type received only compound solvent. Five hours after the addition of compound, reporter activity for luciferase was assayed, by addition of the SteadyGlo luminescence reagent (Promega). The reporter luminescence activity was measured using Pherastar plate reader (BMG Labtech). Readings were normalized to DMSO only treated cells, and normalized activities were then used in the IC50 calculations. The Colo 205 reporter assay data are summarized in Table 3: A<0.3 μM; 0.3 μM≤B<1.0 μM; 1.0 μM≤C<5.0 μM; D≥5.0 μM.
For orientation: Reporter assays use an easily measured gene product as a stand-in for the process of interest.
For `Cc1cc(N2CCCOCC2c2cc([S+](C)[O-])ccc2Cl)nc(N)n1` (stereo not drawn) [I-123], the pIC50 was 6.00 to 6.52.

Still in this assay, the particulars now being: Homo sapiens; Colo 205 TCF/LEF luciferase reporter, 5 hours after compound addition, 384 well; read-out: Colo205 IC50.
As for `Cc1cc(N2CCCOCC2c2cc([S+](C)[O-])ccc2Cl)nc(N)n1` (racemic) [I-110, (+/−)-4-(3-(2-chloro-5-(methylsulfinyl)phenyl)-1,4-oxazepan-4-yl)-6-methylpyrimidin-2-amine], the pIC50 is 6.00 to 6.52. As for `COC(=O)c1ccc(OC)c(C2CCCCCN2c2cc(C)nc(N)n2)c1` (racemic) [I-111, (+/−)-Methyl 3-(1-(2-amino-6-methylpyrimidin-4-yl)azepan-2-yl)-4-methoxybenzoate], the pIC50 was 6.00 to 6.52. Take `Cc1cc(N2CCCOCC2c2cc3c(cc2Cl)OCO3)nc(N)n1` (racemic) [I-113, (+/−)-4-[3-(6-chloro-1,3-benzodioxol-5-yl)-1,4-oxazepan-4-yl]-6-methyl-pyrimidin-2-amine]: the pIC50 is 6.00 to 6.52. For `COc1ccc(C(=O)N(C)C)cc1C1CCCCCN1c1cc(C)nc(N)n1` (racemic) [I-115, (+/−)-3-(1-(2-amino-6-methylpyrimidin-4-yl)azepan-2-yl)-4-methoxy-N,N-dimethylbenzamide], the pIC50 was 6.00 to 6.52. On the same count and under the same terms, the result for `COC(=O)c1ccc(Cl)c(C2COCCCN2c2cc(C)nc(N)n2)c1` (racemic) [I-126, (+/−)-Methyl 3-(4-(2-amino-6-methylpyrimidin-4-yl)-1,4-oxazepan-3-yl)-4-chlorobenzoate] reads 6.00 to 6.52; that for `CNC(=O)c1ccc(Cl)c(C2COCCCN2c2cc(C)nc(N)n2)c1` (racemic) [I-129, (+/−)-3-(4-(2-amino-6-methylpyrimidin-4-yl)-1,4-oxazepan-3-yl)-4-chloro-N-methylbenzamide], 6.00 to 6.52; that for `Cc1cc(N2CCCOCC2c2ccc(-n3cccn3)cc2Cl)nc(N)n1` (racemic) [I-133, (+/−)-4-(3-(2-chloro-4-(1H-pyrazol-1-yl)phenyl)-1,4-oxazepan-4-yl)-6-methylpyrimidin-2-amine], 6.00 to 6.52. For `Cc1cc(N2CCCOCC2c2ccc(NS(C)(=O)=O)cc2Cl)nc(N)n1` (racemic) [I-139, (+/−)-N-[4-[4-(2-amino-6-methyl-pyrimidin-4-yl)-1,4-oxazepan-3-yl]-3-chloro-phenyl]methanesulfonamide], the pIC50 is 6.00 to 6.52. Still for that read-out and setting: for `Cc1cc(N2CCCOCC2c2ccc(N)cc2Cl)nc(N)n1` (racemic) [I-140, (+/−)-4-[3-(4-amino-2-chloro-phenyl)-1,4-oxazepan-4-yl]-6-methyl-pyrimidin-2-amine] the value was above 6.52; for `CC(=O)Nc1ccc(C2COCCCN2c2cc(C)nc(N)n2)c(Cl)c1` (racemic) [I-141, (+/−)-N-(4-(4-(2-amino-6-methylpyrimidin-4-yl)-1,4-oxazepan-3-yl)-3-chlorophenyl)acetamide], above 6.52; for `Cc1cc(N2CCCOCC2c2cc(O)ccc2Cl)nc(N)n1` (racemic) [I-147, (+/−)-3-[4-(2-amino-6-methyl-pyrimidin-4-yl)-1,4-oxazepan-3-yl]-4-chloro-phenol], above 6.52. With `Cc1cc(N2CCCOCC2c2ccc(C(=O)N3CCCC3)cc2Cl)nc(N)n1` (racemic) [I-151, (+/−)-(4-(4-(2-amino-6-methylpyrimidin-4-yl)-1,4-oxazepan-3-yl)-3-chlorophenyl)(pyrrolidin-1-yl)methanone], the negative-log IC50 (pIC50) was 6.00 to 6.52. As to `Cc1cc(N2CCCOCC2c2ccc(C(=O)N(C)C3CCOCC3)cc2Cl)nc(N)n1` (racemic) [I-153, (+/−)-4-(4-(2-amino-6-methylpyrimidin-4-yl)-1,4-oxazepan-3-yl)-3-chloro-N-methyl-N-(tetrahydro-2H-pyran-4-yl)benzamide], the negative-log IC50 (pIC50) is 6.00 to 6.52. As for `Cc1cc(N2CCCOCC2c2cc(-c3ccn[nH]3)ccc2Cl)nc(N)n1` (racemic) [I-157, (+/−)-4-(3-(2-chloro-5-(1H-pyrazol-5-yl)phenyl)-1,4-oxazepan-4-yl)-6-methyl-pyrimidin-2-amine], the pIC50 was 6.00 to 6.52. For `Cc1cc(N2CCCOCC2c2cc(NC(=O)C(F)(F)F)ccc2Cl)nc(N)n1` (racemic) [I-159, (+/−)-N-[3-[4-(2-amino-6-methyl-pyrimidin-4-yl)-1,4-oxazepan-3-yl]-4-chloro-phenyl]-2,2,2-trifluoro-acetamide], the negative-log IC50 (pIC50) was above 6.52.

On to `Cc1cc(N2CCCOC[C@@H]2c2ccccc2Cl)nc(N)n1` (single isomer, unassigned) [I-31], for which the pIC50 was above 6.52. On the same count and under the same terms, the result for `Cc1cc(N2CCCOC[C@@H]2c2cc(N)ccc2Cl)nc(N)n1` (single isomer, unassigned) [I-87] reads above 6.52. Consider `Cc1cc(N2CCCOC[C@@H]2c2ccc(C#N)cc2Cl)nc(N)n1` (single isomer, unassigned) [I-97], for which the pIC50 is 6.00 to 6.52. On to `COc1cc(S(C)(=O)=O)ccc1[C@H]1CCCCCN1c1cc(C)nc(N)n1` (single isomer, unassigned) [I-99, 4-[2-(2-methoxy-4-methylsulfonyl-phenyl)azepan-1-yl]-6-methyl-pyrimidin-2-amine], for which the negative-log IC50 (pIC50) is above 6.52.

Regarding `COc1ccc(OC)c([C@H]2COCCCN2c2cc(C)nc(N)n2)c1` (single isomer, unassigned) [I-101], the pIC50 was above 6.52.

Take `Cc1cc(N2CCCCC[C@@H]2c2cc(OC(C)C)ccc2Cl)nc(N)n1` (single isomer, unassigned) [I-108]: the negative-log IC50 (pIC50) was above 6.52.

Regarding `COc1ccc(O)cc1[C@H]1CCCCCN1c1cc(C)nc(N)n1` (single isomer, unassigned) [I-127], the negative logarithm of the IC50 (pIC50) was above 6.52. Still for that read-out and setting: for `COc1ccc(Cl)c([C@H]2CCCCCN2c2cc(C)nc(N)n2)c1` (single isomer, unassigned) [I-135] the value was 6.00 to 6.52; for `COc1ccc(Cl)c([C@H]2COCCCN2c2cc(C)nc(N)n2)c1` (single isomer, unassigned) [I-138], above 6.52. As to `Cc1cc(N2CCCOC[C@@H]2c2ccc(C(=O)N(C)C)cc2Cl)nc(N)n1` (single isomer, unassigned) [I-144], the pIC50 was 6.00 to 6.52. The same measure, in the same setting: the result for `Cc1cc(N2CCCOC[C@H]2c2cc(C(O)C(F)(F)F)ccc2Cl)nc(N)n1` (single isomer, unassigned) [I-146] reads 6.00 to 6.52. As for `Cc1cc(N2CCCCCC2c2ccccc2F)nc(N)n1` (stereo not drawn) [I-36, 4-(2-(2-fluorophenyl)azepan-1-yl)-6-methylpyrimidin-2-amine], the negative-log IC50 (pIC50) was 6.00 to 6.52. With `Cc1cc(N2CCCOCC2c2cc([N+](=O)[O-])ccc2Cl)nc(N)n1` (stereo not drawn) [I-72, 4-(3-(2-chloro-5-nitrophenyl)-1,4-oxazepan-4-yl)-6-methylpyrimidin-2-amine], the pIC50 is 6.00 to 6.52. As for `CC(=O)Nc1ccc(Cl)c(C2COCCCN2c2cc(C)nc(N)n2)c1` (stereo not drawn) [I-84], the negative logarithm of the IC50 (pIC50) was above 6.52. On the same count and under the same terms, the result for `COCC(=O)Nc1ccc(Cl)c(C2COCCCN2c2cc(C)nc(N)n2)c1` (stereo not drawn) [I-90] reads 6.00 to 6.52; that for `CNC(=O)c1ccc(C2COCCCN2c2cc(C)nc(N)n2)c(Cl)c1` (stereo not drawn) [I-106], above 6.52. Still for that read-out and setting: for `COc1ccc(O)cc1C1CCCCCN1c1cc(C)nc(N)n1` (stereo not drawn) [I-107, 3-[1-(2-amino-6-methyl-pyrimidin-4-yl)azepan-2-yl]-4-methoxy-phenol] the value was above 6.52; for `Cc1cc(N2CCCOCC2c2cc([S+](C)[O-])ccc2Cl)nc(N)n1` (stereo not drawn) [I-122], 6.00 to 6.52. On the same count and under the same terms, for `COc1ccc(Cl)cc1[C@H]1COCCCN1c1cc(C)nc(N)n1` [I-132, (S)-4-(3-(5-chloro-2-methoxyphenyl)-1,4-oxazepan-4-yl)-6-methylpyrimidin-2-amine] the value was 6.00 to 6.52; for `CNC(=O)c1ccc(OC)c([C@H]2CCCCCN2c2cc(C)nc(N)n2)c1` [I-148, (R)-3-(1-(2-amino-6-methylpyrimidin-4-yl)azepan-2-yl)-4-methoxy-N-methylbenzamide], above 6.52. Take `Cc1cc(N2CCCOCC2c2cc(NC(=O)OC(C)(C)C)ccc2Cl)nc(N)n1` (stereo not drawn) [I-158]: the negative-log IC50 (pIC50) was 6.00 to 6.52. On to `COc1ccc(F)cc1C1COCCCN1c1cc(C)nc(N)n1` (stereo not drawn) [I-284], for which the pIC50 was 6.00 to 6.52. On the same count and under the same terms, the result for `COc1cc(F)c(F)cc1C1COCCCN1c1cc(C)nc(N)n1` (stereo not drawn) [I-286] reads 6.00 to 6.52; that for `COC(=O)c1ccc(C2COCCCN2c2cc(C)nc(N)n2)c(OC)c1` (stereo not drawn) [I-290], 6.00 to 6.52; that for `COc1ccc(Cl)cc1C1COCCCN1c1cc(C)nc(N)n1` (stereo not drawn) [I-291], 6.00 to 6.52. On to `COC(=O)c1ccc(C2COCCCN2c2cc(C)nc(N)n2)c(Cl)c1` (stereo not drawn) [I-292], for which the negative-log IC50 (pIC50) was 6.00 to 6.52. On the same count and under the same terms, the result for `Cc1cc(N2CCCOCC2c2ccc(C(=O)N(C)C)cc2Cl)nc(N)n1` (stereo not drawn) [I-293] reads 6.00 to 6.52; that for `Cc1cc(Nc2ccc(Cl)c(C3COCCCN3c3cc(C)nc(N)n3)c2)nc(N)n1` (stereo not drawn) [I-294], 6.00 to 6.52; that for `Cc1cc(N2CCC(C)OCC2c2ccccc2Cl)nc(N)n1` (stereo not drawn) [I-301], above 6.52.

By pIC50 is commonly meant the negative decadic logarithm of the IC50, by convention in mol/L.
